The values below come from ChEMBL document CHEMBL1201862, “PubChem BioAssay data set” (2004).

Some test systems named below: SNB-19; SK-MEL-2; HL-60; SK-MEL-28; HCT-15; HT-29; KM12; OVCAR-5; ACHN; RXF 393; SF-539; HOP-62; SN12C; HCT-116; HOP-92; U-251; SF-268; SK-MEL-5; K562.
Assay in all cases: growth of human tumour cells (NCI), 48 h

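A five-concentration, 48-hour dose response in 96-well plates underlies each endpoint, interpolated linearly between surrounding concentrations. GI50 marks 50% less growth.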 The source made the active and inactive calls. No stated cut-off is given here; in the data, active = GI50 up to about 1.1 µM and inactive = higher.

Turning to `COC1=C(N)C(=O)c2nc(C)ccc2C1=O`, the GI50 in the assay with SNB-19 was 1.91 µM (inactive); with SK-MEL-2, 1.74 µM (inactive); in the assay on HL-60, 2.94 µM (inactive); in the assay with SK-MEL-28, 1.82 µM (inactive); in the assay on HCT-15, 1.92 µM; in the assay on HT-29, 1.98 µM (inactive). Besides, the GI50 in the assay on KM12 was 1.87 µM (inactive); in the assay on OVCAR-5, 1.98 µM (inactive); with ACHN, 1.77 µM (inactive); in the assay with RXF 393, 1.67 µM (inactive); in the assay with SF-539, 1.91 µM (inactive); in the assay on HOP-62, 1.57 µM (inactive). Moreover, the GI50 with SN12C is 1.82 µM (inactive); with HCT-116, 1.94 µM (inactive); with HOP-92, 9.95 µM (inactive); in the assay on U-251, 2.2 µM (inactive); with SF-268, 2.11 µM (inactive); with SK-MEL-5 it was 1.7 µM (inactive).
As to `CN(C)CCNC(=O)c1cccc2ccc(-c3ccc(Br)cc3)nc12`, the GI50 with SNB-19 is 4.14 µM (inactive); in the assay on SK-MEL-2, 3.09 µM (inactive); in the assay on HL-60, 1.23 µM (inactive); with SK-MEL-28, 3.76 µM (inactive); in the assay on HCT-15, 2.78 µM; with HT-29, 1.61 µM (inactive). Also, the GI50 in the assay with KM12 is 3.45 µM (inactive); with OVCAR-5, 2.96 µM (inactive); in the assay on K562, 1.7 µM (inactive); in the assay with RXF 393 it was 3.96 µM (inactive); in the assay on SF-539, 3.13 µM (inactive); in the assay on HOP-62, 0.832 µM (active). For the same molecule, the GI50 in the assay with SN12C is 2.33 µM (inactive); in the assay with HCT-116, 1.23 µM (inactive); with HOP-92, 2.49 µM (inactive); in the assay with U-251, 2.8 µM (inactive); in the assay on SF-268, 3.92 µM (inactive); in the assay on SK-MEL-5, 1.46 µM (inactive).
For `N#C/C(=C/c1ccc[nH]1)P(=O)(O)O`, the GI50 with SNB-19 is > 100 µM (inactive); with SK-MEL-2, > 100 µM (inactive); in the assay on HL-60, > 100 µM (inactive); with SK-MEL-28 it was > 100 µM (inactive); in the assay on HCT-15, greater than 100 µM; in the assay on HT-29 it was > 100 µM (inactive). The GI50 with KM12, with OVCAR-5, in the assay with ACHN, in the assay on K562, with RXF 393 and in the assay on SF-539 was > 100 µM (inactive) throughout. Further, the GI50 in the assay on HOP-62, in the assay on SN12C, with HCT-116, with HOP-92, with U-251 and in the assay with SF-268 was > 100 µM (inactive) each time. Further, the GI50 in the assay with SK-MEL-5 was > 100 µM (inactive).
`O=C1OC2C(O)COC2(O)C1(O)Cc1c[nH]c2ccccc12.O=C1OC2C(O)COC2(OCc2c[nH]c3ccccc23)C1O` (stereo not given): the GI50 with SNB-19 was > 100 µM (inactive); in the assay with SK-MEL-2 it was > 100 µM (inactive); in the assay on HL-60, > 100 µM (inactive); in the assay on HCT-15, greater than 100 µM; with HT-29, > 100 µM (inactive); in the assay on KM12, > 100 µM (inactive). For the same molecule, the GI50 in the assay with OVCAR-5, in the assay with K562, with RXF 393, with SF-539, with HOP-62 and in the assay with SN12C was > 100 µM (inactive) each time. Besides, the GI50 in the assay on HCT-116, in the assay on HOP-92, in the assay on U-251, with SF-268 and in the assay with SK-MEL-5 was > 100 µM (inactive) in each case.
Turning to `CCc1cccc(C)c1NC(=O)CC1C(=O)Nc2ccccc2S1(=O)=O` (stereo not given), the GI50 in the assay with SNB-19 is 27.5 µM (inactive); with SK-MEL-2, 21.1 µM (inactive); in the assay on HL-60 it was 12.1 µM (inactive); with SK-MEL-28, 18.5 µM (inactive); in the assay on HCT-15, 12 µM; with HT-29 it was 19.7 µM (inactive). Besides, the GI50 is 23.6 µM (inactive) in the assay with OVCAR-5; 18.6 µM (inactive) in the assay with ACHN; 2.92 µM (inactive) in the assay on K562; 15.1 µM (inactive) with RXF 393; 11 µM (inactive) in the assay with SF-539; 20.8 µM (inactive) in the assay on SN12C. For the same molecule, the GI50 is 15.8 µM (inactive) in the assay on HCT-116; 12 µM (inactive) with HOP-92; 16.9 µM (inactive) in the assay on U-251; 20.8 µM (inactive) with SF-268; 13.7 µM (inactive) in the assay on SK-MEL-5.
On to `Cc1nc2ccccc2c(=O)n1/N=C(\N=N\c1ccccc1Cl)c1ccccc1Cl`, for which the GI50 is 27.9 µM (inactive) with HL-60; > 100 µM (inactive) with SK-MEL-28; 57.1 µM with HCT-15; 53.6 µM (inactive) in the assay with HT-29; 50.5 µM (inactive) in the assay on ACHN; 37.3 µM (inactive) with K562. The GI50 is 17.9 µM (inactive) in the assay with RXF 393; 27.2 µM (inactive) in the assay on SF-539; 34.8 µM (inactive) with HOP-62; 38.8 µM (inactive) with SN12C; 36.4 µM (inactive) with HCT-116; 13 µM (inactive) with HOP-92. The results for the GI50 with U-251, in the assay on SF-268 and in the assay with SK-MEL-5 were 48.5 µM (inactive), 35.1 µM (inactive) and 63.1 µM (inactive), respectively.
Consider `Nc1ccc(C(=O)N/C(=C\c2ccc3c(c2)OCO3)c2nc3c(O)nc(S)nc3[nH]2)cc1`, for which the GI50 is > 100 µM (inactive) in the assay on SNB-19; > 100 µM (inactive) with SK-MEL-2; > 100 µM (inactive) in the assay on SK-MEL-28; greater than 100 µM with HCT-15; > 100 µM (inactive) in the assay on HT-29; > 100 µM (inactive) in the assay on KM12. Moreover, the GI50 was > 100 µM (inactive) in the assay with OVCAR-5; > 100 µM (inactive) with ACHN; > 100 µM (inactive) in the assay on K562; 33.8 µM (inactive) in the assay with RXF 393; > 100 µM (inactive) in the assay with SF-539; > 100 µM (inactive) in the assay on SN12C. Also, the GI50 is 75.5 µM (inactive) with HOP-92, > 100 µM (inactive) with U-251, > 100 µM (inactive) in the assay on SF-268 and > 100 µM (inactive) in the assay on SK-MEL-5.
With `O=c1c2ccccc2nc(-c2ccccc2)n1NC(=S)Nc1ccccc1`, the GI50 was > 100 µM (inactive) with SK-MEL-2; > 100 µM (inactive) with HL-60; 34.8 µM (inactive) in the assay with SK-MEL-28; greater than 100 µM in the assay on HCT-15; > 100 µM (inactive) in the assay on HT-29; > 100 µM (inactive) in the assay with KM12. In addition, the GI50 in the assay with OVCAR-5, with ACHN, with K562, with RXF 393, in the assay on SF-539 and with HOP-62 was > 100 µM (inactive) in each case. The GI50 in the assay with SN12C was > 100 µM (inactive); in the assay with HCT-116 it was > 100 µM (inactive); in the assay on HOP-92 it was > 100 µM (inactive); in the assay on U-251 it was > 100 µM (inactive); in the assay on SF-268, > 100 µM (inactive); with SK-MEL-5, 89.1 µM (inactive).
`O=C(O)NC(c1ccccc1)C(NC(=O)c1ccccc1)c1ccccc1` (stereo not given): the GI50 is > 100 µM (inactive) in the assay with SNB-19; > 100 µM (inactive) in the assay on SK-MEL-2; > 100 µM (inactive) with SK-MEL-28; greater than 100 µM in the assay on HCT-15; > 100 µM (inactive) in the assay on HT-29; > 100 µM (inactive) with KM12. Besides, the GI50 in the assay on OVCAR-5, with ACHN, in the assay with K562, in the assay with RXF 393, in the assay on SF-539 and in the assay with HOP-62 was > 100 µM (inactive) each time. Besides, the GI50 with SN12C, with HCT-116, in the assay on HOP-92, in the assay on U-251 and in the assay with SF-268 was > 100 µM (inactive) throughout.
Consider `CC(C)(C)Sc1nnc(SC(C)(C)C)c2c(SC(C)(C)C)nnc(O)c12`, for which the GI50 is 11.6 µM (inactive) in the assay on SNB-19; 2.14 µM (inactive) in the assay with HL-60; 4.31 µM with HCT-15; 6.03 µM (inactive) in the assay on HT-29; 12.9 µM (inactive) with KM12; 4.61 µM (inactive) in the assay on OVCAR-5. In addition, the GI50 with K562 was 4.74 µM (inactive); in the assay with RXF 393, 3.39 µM (inactive); in the assay on SF-539 it was 10.6 µM (inactive); with HOP-62, 13.9 µM (inactive); in the assay on SN12C it was 10.2 µM (inactive); in the assay on HCT-116, 3.78 µM (inactive). In addition, the GI50 in the assay with HOP-92 is 2.49 µM (inactive); in the assay on U-251, 5.62 µM (inactive); in the assay with SF-268, 7.53 µM (inactive); in the assay on SK-MEL-5, 5.35 µM (inactive).
For the molecule `CCOC(=O)C(C(=O)OCC)P(=S)(S)c1ccccc1` (stereo not given), the GI50 in the assay on SNB-19, with SK-MEL-2, in the assay with HL-60, in the assay on SK-MEL-28, in the assay with HT-29 and with KM12 was > 100 µM (inactive) throughout. The GI50 in the assay with OVCAR-5, in the assay on ACHN, with K562, with RXF 393, with SF-539 and with HOP-62 was > 100 µM (inactive) each time. The GI50 in the assay with SN12C, in the assay on HOP-92, with U-251, with SF-268 and in the assay on SK-MEL-5 was > 100 µM (inactive) each time.
`OC1CCC[C@@H]1Sc1ccccc1` (stereo not given in full): the GI50 was > 100 µM (inactive) in the assay with SNB-19; > 100 µM (inactive) in the assay on SK-MEL-2; > 100 µM (inactive) in the assay on HL-60; > 100 µM (inactive) with SK-MEL-28; greater than 100 µM in the assay with HCT-15; > 100 µM (inactive) in the assay on KM12. Moreover, the GI50 in the assay with ACHN, with K562, with RXF 393, in the assay with SF-539, in the assay with HOP-62 and with SN12C was > 100 µM (inactive) in each case. The GI50 in the assay on HCT-116, in the assay with HOP-92, in the assay with U-251, in the assay with SF-268 and with SK-MEL-5 was > 100 µM (inactive) throughout.
